# Measurements published in paper PMC4330097, “Competitive Binding of a Benzimidazole to the Histone-Binding Pocket of the Pygo PHD Finger” (ACS Chemical Biology, 2014).
# No end group written: not given here. Me2 = dimethyl on the lysine side chain (dimethyllysine)
# Experiments:
# [1] = biological target: T1, Pygo2 PHD finger (PHD–HD1 complex) (Homo sapiens, UniProt Q9BRQ0); experiment: HSQC NMR titration, intermolecular NOEs; type: binding; set-up: with B9L HD1 (BCL9L)
# T1 sequence (Q9BRQ0 327-387): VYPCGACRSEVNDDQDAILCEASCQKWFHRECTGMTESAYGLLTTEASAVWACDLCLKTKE
# T1 sequence (Q86UU0 235-263 partner): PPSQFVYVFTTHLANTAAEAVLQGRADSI
# [2] = biological target: T1, Pygo2 PHD finger (PHD–HD1 complex); experiment: HSQC NMR titration, intermolecular NOEs, NMR competition with H3 peptide; type: binding; set-up: with B9L HD1 (BCL9L)
# From the text: HSQC NMR titration, intermolecular NOEs, NMR competition with H3 peptide on Pygo2 PHD finger (PHD–HD1 complex) | estimated affinities of CF16 and CF18 for the K4me pocket appear to be lower
# [3] = biological target: T1, Pygo2 PHD finger (PHD–HD1 complex); experiment: HSQC NMR chemical shift perturbation; type: binding; set-up: PHD–HD1 complex; with B9L HD1 (BCL9L)
# [4] = biological target: T1, Pygo2 PHD finger (PHD–HD1 complex); experiment: biochemical; set-up: PHD–HD1 complex; with B9L HD1 (BCL9L); 15N-HSQC NMR titration of 15N-labelled PHD-HD1; Kd from chemical shift perturbations
# From the text: […]. […] Nevertheless, we asked whether CF16 could compete with a native histone H3 tail peptide for binding to the PHD–HD1 complex.
# [5] = biological target: T2, histone H3 tail pentapeptide ARTKme2Q (Homo sapiens); experiment: NMR HSQC titration
# T2 chain: ARTK(Me2)Q
molecule,measurement,setting,value
CN(C)CCn1c(N)nc2ccccc21 [CF18],Kd,[1],~14.7 mM
CCn1c(N)nc2ccccc21 [CF16],Kd,[2],~7.3 mM
CCn1c(NCCN2CCOCC2)nc2ccccc21 [CF17],HSQC NMR chemical shift perturbation,[3],"CF14, CF16, and CF17 produced altogether distinct CSP patterns"
Nc1nc2cc3c(cc2s1)OCCO3 [CF7],Kd,[4],2.9 mM
Pygo2 PHD–B9L HD1 complex 327-387+235-263 (protein) chain 1: AASAPPPPDKLEGGGGPAPPPAPPSTGRKQGKAGLQMKSPEKKRRKSNTQGPAYSHLTEFAPPPTPMVDHLVASNPFEDDFGAPKVGVAAPPFLGSPVPFGGFRVQGGMAGQVPPGYSTGGGGGPQPLRRQPPPFPPNPMGPAFNMPPQGPGYPPPGNMNFPSQPFNQPLGQNFSPPSGQMMPGPVGGFGPMISPTMGQPPRAELGPPSLSQRFAQPGAPFGPSPLQRPGQGLPSLPPNTSPFPGPDPGFPGPGGEDGGKPLNPPASTAFPQEPHSGSPAAAVNGNQPSFPPNSSGRGGGTPDANSLAPPGKAGGGSGPQPPPGLVYPCGACRSEVNDDQDAILCEASCQKWFHRECTGMTESAYGLLTTEASAVWACDLCLKTKEIQSVYIREGMGQLVAANDG chain 2: MRILANKTRLPHPRRREAPGSPPLSPRGHCPPAPAKPMHPENKLTNHGKTGNGGAQSQHQNVNQGPTCNVGSKGVGAGNHGAKANQISPSNSSLKNPQAGVPPFSSLKGKVKRDRSVSVDSGEQREAGTPSLDSEAKEVAPRSKRRCVLERKQPYSGDEWCSGPDSEEDDKPIGATHNCNVADPAMAAPQLGPGQTTQLPLSESSVPGAPHGPPPGLRPDAPGGGGGGGGVPGKPPSQFVYVFTTHLANTAAEAVLQGRADSILAYHQQNVPRAKLDQAPKVPPTPEPLPLSTPSAGTPQSQPPPLPPPPPPAPGSAPPALPPEGPPEDSSQDLAPNSVGAASTGGGTGGTHPNTPTATTANNPLPPGGDPSSAPGPALLGEAAAPGNGQRSLVGSEGLSKEQLEHRERSLQTLRDIERLLLRSGETEPFLKGPPGGAGEGGPPAQAPPPPQQPPTAPPSGLKKYEEPLQSMISQTQSLGGPPLEHEVPGHPPGGDMGQQMNMMIQRLGQDSLTPEQVAWRKLQEEYYEEKRRKEEQIGLHGSRPLQDMMGMGGMMVRGPPPPYHSKPGDQWPPGMGAQLRGPMDVQDPMQLRGGPPFPGPRFPGNQIQRVPGFGGMQSMPMEVPMNAMQRPVRPGMGWTEDLPPMGGPSNFAQNTMPYPGGQGEAERFMTPRVREELLRHQLLEKRSMGMQRPLGMAGSGMGQSMEMERMMQAHRQMDPAMFPGQMAGGEGLAGTPMGMEFGGGRGLLSPPMGQSGLREVDPPMGPGNLNMNMNVNMNMNMNLNVQMTPQQQMLMSQKMRGPGDLMGPQGLSPEEMARVRAQNSSGVMGGPQKMLMPSQFPNQGQQGFSGGQGPYQAMSQDMGNTQDMFSPDQSSMPMSNVGTTRLSHMPLPPASNPPGTVHSAPNRGLGRRPSDLTISINQMGSPGMGHLKSPTLSQVHSPLVTSPSANLKSPQTPSQMVPLPSANPPGPLKSPQVLGSSLSVRSPTGSPSRLKSPSMAVPSPGWVASPKTAMPSPGVSQNKQPPLNMNSSTTLSNMEQGTLPPSGPRSSSSAPPANPPSGLMNPSLPFTSSPDPTPSQNPLSLMMTQMSKYAMPSSTPLYHNAIKTIATSDDELLPDRPLLPPPPPPQGSGPGISNSQPSQMHLNSAAAQSPMGMNLPGQQPLSHEPPPAMLPSPTPLGSNIPLHPNAQGTGGPPQNSMMMAPGGPDSLNAPCGPVPSSSQMMPFPPRLQQPHGAMAPTGGGGGGPGLQQHYPSGMALPPEDLPNQPPGPMPPQQHLMGKAMAGRMGDAYPPGVLPGVASVLNDPELSEVIRPTPTGIPEFDLSRIIPSEKPSSTLQYFPKSENQPPKAQPPNLHLMNLQNMMAEQTPSRPPNLPGQQGVQRGLNMSMCHPGQMSLLGRTGVPPQQGMVPHGLHQGVMSPPQGLMTQQNFMLMKQRGVGGEVYSQPPHMLSPQGSLMGPPPQQNLMVSHPLRQRSVSLDSQMGYLPAPGGMANLPF,Kd,[5],0.528 mM
